According to patent US20260070887A1 (Shenzhen Zhongge Biological Technology Co., Ltd., priority 2022, published 2026):
pIC50: −log10 of the molar value.

What was measured:
HCC1395 cells = assay: HCC1395 cell proliferation (Cell Titer-Glo, 6 days); type: cell-based; settings: KIF18A-insensitive tumor cells
Description: The inhibitory effect on the KIF18A target by the compounds of the present disclosure was evaluated by testing the inhibitory effect on proliferation of HCC1954 and HCC1395 cells by the compounds of the present disclosure.
HCC1954 (ATCC, CRL-2388) and HCC1395 (ATCC, CRL-2324) cells were cultured separately in RPMI-1640 complete medium (Gibco, A1049101) containing 20% fetal bovine serum (Gibco, 10099141C), 100 U penicillin, and 100 μg/mL streptomycin (Gibco, 15140-122). The Promega kit Cell Titer-Glo (Promega: G7572) was used in this method for test. • 1. HCC1954 (KIF18A-sensitive tumor cells) and HCC1395 (KIF18A-insensitive tumor cells) were cultured separately in T75 cell culture flasks (Corning, 430641), and the medium was placed in a 37° C., 5% CO2 incubator. • 2. When the cell density reached 70% to 80% (about 2 to 3 times per week), cells are passaged with trypsin (0.25% EDTA). • 3. The cell culture flask was taken out and the cells were separated by adding 2 mL of trypsin (0.25% EDTA source) for 5 minutes. • 4. Digestion was stopped by adding 8 mL of RPM1-1640 medium and the cell suspension was transferred to a centrifuge tube and centrifuged at 1000 rpm for 5 minutes. • 5. The cells were resuspended with 5 mL of RPMI-1640 medium. Cell density was adjusted to 5×10^3/mL (HCC1954), and 2.5×10^4/mL (HCC1395), respectively. • 6. 40 μL of cell solution was added to the 384-well plate (Corning, 3765). • 7. The 384-well plate was centrifuged at 1000 rpm for 1 minute. • 8. The cells were cultured overnight in a 37° C., 5% CO2 incubator. • 9. The next day, 40 nL of compound solution was added to the 384-well plate using Echo650. The plate was then placed in a 37° C., 5% CO2 incubator for 6 days. • 10. After 6 days, 20 μL of Cell-Titer-Glo (Promega, G7572) reagent was added per well. • 11. Luminescence values were measured using the EnVision Xcite Multilabel Reader (PerkinElmer, 2105-0020).
The percentage of inhibition of cell proliferation by the test compound at each concentration was calculated by comparing with the values of the control group (0.1% DMSO). The IC50 values of the compounds were obtained by concentration-inhibition rate nonlinear regression analysis of the test compounds using GraphPad Prism 9.

OVCAR3 tumor = assay: OVCAR3 human ovarian cancer subcutaneous transplant tumor model; type: in vivo, mouse; settings: oral, QD, 28 days, balb/c nude mice
From the text: • I. Experimental objective: evaluation of the pharmacological effects of the reference compounds and the compounds of the present disclosure in the OVCAR3 human ovarian cancer subcutaneous transplant tumor model. • II. Experimental material: experimental female balb/c nude mice, 6-8-week old or 18-20 g, provided by Vital River Laboratory Animal Technology Co., Ltd. • III. Experimental method: Experimental animals were housed within a specific pathogen-free animal barrier facility, and the experiment was started 3 days after the animals were acclimated. The human ovarian cancer OVCAR3 tumor cells were cultured in vitro as monolayers in RPMI 1640 complete medium (supplemented with a final concentration of 20% fetal bovine serum, 1% penicillin-streptomycin dual antibiotics, and 0.01 mg/ml insulin) at 37° C. in an atmosphere containing 5% CO2. The tumor cells were routinely passaged 2-3 times per week, and the cells in the exponential growth phase were collected and counted for tumor cell inoculation. 10×10^6 OVCAR3 tumor cells were resuspended in 0.1 m1 PBS and mixed with 0.1 m1 matrigel and then subcutaneously inoculated into the right flank of each mouse to establish tumors. When the mean tumor volume of the tumor-bearing mice grew to around 100 mm^3, the appropriate tumor-bearing mice were selected for randomization and the groups were set as: blank control groups, reference compound groups, and groups of compounds of the present disclosure. Vehicles were administered orally in the blank control group, and the corresponding compounds were administered orally in the other groups for 28 days. Tumor volumes and animal weights were monitored […], twice weekly. This experiment examined the inhibitory effect of the reference compound and the compound of the present disclosure on the growth of OVCAR3 human ovarian cancer cells by monitoring the size of the tumor volume of each group after administration of the compounds.

SMILES | pIC50 (HCC1395 cells) | inhibition rate on OVCAR3 tumor growth (OVCAR3 tumor; 10 mg/kg) | further results
Nc1cc(NS(=O)(=O)CCO)cc(N2CCC3(CC2)CC3)c1C(=O)Nc1cccc(N2CCC(F)(F)CC2)c1 [Example 1, 2-amino-N-(3-(4,4-difluoropiperidin-1-yl)phenyl)-4-((2-hydroxyethyl)sulfonamide)-6-(6-azaspiro[2.5]octan-6-yl)benzamide] | < 5.30 | – | –
CNc1cc(NS(=O)(=O)CCO)cc(N2CCC3(CC2)CC3)c1C(=O)Nc1cc(C)nc(N2CCC(F)(F)CC2)n1 [Example 4, N-(2-(4,4-difluoropiperidin-1-yl)-6-methylpyrimidin-4-yl)-4-(2-hydroxyethylsulfonamide)-2-methylamino-6-(6-azaspiro[2.5]octan-6-yl)benzamide] | < 5.30 | – | –
O=C(Nc1cccc2c1cc1n2CCOC1)c1ccc(NS(=O)(=O)CCO)cc1N1CCC2(CC1)CC2 [Example 235, N-(3,4-dihydro-1H-[1, 4]oxazino[4,3-a]indol-9-yl)-4-(2-hydroxyethylsulfonamido)-2-(6-azaspiro[2.5]octan-6-yl)benzamide] | – | – | pIC50 (HCC1395 cells; Homo sapiens, HCC1395, 144 h): < 5.30
O=C(Nc1cccc2c1cc1n2CCOC1)c1ccc(NS(=O)(=O)CCO)cc1N1CCC(=C(F)F)CC1 [Example 319, 2-(4-difluoromethylene)piperidin-1-yl-N-(3,4-dihydro-1H-[1,4]oxazino[4,3-a]indol-9-yl)-4-((2-hydroxyethyl)sulfonamide) benzamide] | < 5.30 | – | –
CC1(C)Cn2c(cc3c(NC(=O)c4ccc(NS(=O)(=O)CCO)cc4N4CCC5(CC4)CC5)cccc32)CO1 [Example 371, N-(3,3-dimethyl-3,4-dihydro-1H-[1,4]oxazino[4,3-a]indol-9-yl)-4-(2-hydroxyethylsulfonamido)-2-(6-azaspiro[2.5]octan-6-yl)benzamide] | – | 94%-98% | inhibition rate on OVCAR3 tumor growth (OVCAR3 tumor; 30 mg/kg): about 110%
COc1ccc(NC(=O)c2ccc(NS(=O)(=O)CCO)cc2N2CCC3(CC2)CC3)c2cc3n(c12)CC(C)(C)OC3 [Example 455, 4-((2-hydroxyethyl)sulfonamido)-N-(6-methoxy-3,3-dimethyl-3,4-dihydro-1H-[1,4]oxazinyl[4,3-a]indol-9-yl)-2-(6-azaspiro[2.5]oct-6-yl)benzamide] | – | 94%-98% | –
COc1ccc(NC(=O)c2ccc(NS(=O)(=O)CCO)cc2N2CCC(=C(F)F)CC2)c2cc3n(c12)CC(C)(C)OC3 [Example 465, 2-(4-(difluoromethylene)piperidin-1-yl)-4-((2-hydroxyethyl)sulfonamido)-N-(6-methoxy-3,3-dimethyl-3,4-dihydro-1H-[1,4]oxazinyl[4,3-a]indol-9-yl)benzamide] | – | 60%-70% | –
